In data set [1] the test system is OVA-induced allergic airway inflammation. The data set is described as follows: Airway resistance in response to MCh, OVA model, oral dapansutrile in food. Type of data set: in vivo, mice. The conditions noted are these: 100 mg/mL MCh. The method, then: (§1) The experimental protocols of the mouse model were the same as those described in Example 1, except dapansutrile was administered orally by food. The already-sensitized mice were fed ad libidum with food pellets containing 7.5 g/kg dapansutrile starting on day 22 for one week; the first aerosol challenge was on day 26. Mice typically consume about 4 g of food per day, resulting in an approximate daily dose of 0 mg/kg/day for control groups and 1,000 mg/kg/day for the treatment groups. […] OVA-sensitized, OVA-challenged asthmatic controls (asthmatic) were fed with control food pellets without dapansutrile. […] Baseline airway resistance of healthy animals was 2.58 cm H2O·s/mL at 100 mg/mL MCh.

Data set [2] has the same test system. Put plainly: Inflammatory cell infiltrate in lung tissue, OVA model, oral dapansutrile in food. The class given is in vivo. To be noted: 7.5 g/kg in food, treated vs asthmatic mice, p<0.05. The method, then:
The experimental protocols of the mouse model were the same as those described in Example 1, except dapansutrile was administered orally by food. The already-sensitized mice were fed ad libidum with food pellets containing 7.5 g/kg dapansutrile starting on day 22 for one week; the first aerosol challenge was on day 26. Mice typically consume about 4 g of food per day, resulting in an approximate daily dose of 0 mg/kg/day for control groups and 1,000 mg/kg/day for the treatment groups. […] OVA-sensitized, OVA-challenged asthmatic controls (asthmatic) were fed with control food pellets without dapansutrile. […] The label on the y-axis reads “volume of inflammatory cell infiltrate per basal membrane area (μm^3/μm^2)”. The inflammatory cells were counted within a specific distance around the airways using a microscope with the computer assisted stereological toolbox (CAST) system. These counts were set in ratio to the basal membrane to normalize within each microscopic slide to avoid slide-dependent differences.

Data set [3] concerns IFN-γ, TNFα, IL-1β, IL-4, IL-5, IL-6, IL-10, IL-13, and IL17A. The data set is described as follows: Cytometric bead array of cytokines in BALF of Example 1. The class given is in vivo, C57BL/6j mice. The conditions noted are these: 60 mg/kg i.p., treated vs asthmatic mice. An excerpt:
Cytometric bead arrays were used as a method to assess the concentration of cytokines of IFN-γ, TNFα, IL-1β, IL-4, IL-5, IL-6, IL-10, IL-13, and IL17A) in the BALF of Example 1. The beads in this array were coated with antibodies specific against a variety of cytokines, some relevant and known to be affected by NLRP3 signaling.

Data set [4] concerns OVA-induced allergic airway inflammation. Put plainly: Leukocyte subpopulations in bronchoalveolar lavage fluid, OVA allergic asthma model, i.p. dapansutrile. To be noted: Day 29. Type of data set: in vivo, C57BL/6j mice. The text has this: A well-established mouse model of experimental allergic asthma (Sel 2008, Wegmann 2005, Wegmann 2007, Lunding 2015a) was used to evaluate dapansutrile as a therapeutic option in allergic bronchial asthma and to determine if dapansutrile would have an impact on airway inflammation and the development of airway hyperresponsiveness (AHR) Inflammation in this model is characterized by the infiltration of eosinophils as well as of TH2 cells and involves the subsequent development of AHR and mucus hyperproduction so that this model resembles the major pathophysiologic hallmarks of human bronchial asthma.
C57BL/6j mice were sensitized to OVA (ovalbumin) by three intraperitoneal (i.p.) injections of 10 μg OVA adsorbed to 150 mg aluminum hydroxide on days 1, 14, and 21. This sensitization results in an adoptive immune response against OVA with OVA-specific TH2 cells and the production of OVA-specific antibodies of the subclasses IgE and IgG4.
To induce acute allergic airway inflammation, mice were exposed three times to an OVA aerosol (1% w/v in PBS) on days 26, 27, and 28.
Healthy control animals (healthy group) were sham sensitized to PBS and subsequently challenged with PBS aerosol. Non-drug treated animals (asthmatic group) and drug-treated animals (treated group) were sensitized by […] and subsequently challenged with OVA aerosol. The treatment group were treated with dapansutrile at 60 mg/kg at days 25, 26, 27, and 28 by intraperitoneal (i.p). injection, whereas the healthy group and the asthmatic group were administered with saline by intraperitoneal injection on days 25, 26, 27, and 28.
Eight animals per group were used. All animals were sacrificed on day 29. The following readouts were measured according to Lunding, 2015b. • General infiltration of inflammatory cells into the broncheoalveolar lumen • Determination of the specific infiltration of eosinophils, neutrophils and lymphocytes by histologic differentiation of the bronchoalveolar lavage (BAL) cells. • Goblet cell hyperplasia by CAST system (Computer Assisted Stereological Toolbox), including making microscopic pictures of the airways. • Airway resistance in response to methacholine to determine the airway hyperresponsiveness.
Specifically, inflammatory cell subpopulations (eosinophils, macrophages, neutrophils, lymphocytes) infiltrating the bronchoalveolar lumen were quantified using cyto-spinned and quick-diff-stained cells from bronchoalveolar lavage fluids (BALF). Further, inflammatory cell infiltration was recorded from hematoxylin and eosin (HE)-stained lung/airway cross-sections. AHR was assessed by recording airway resistance during a methacholine (MCh) provocation test in mice mechanically ventilated by a Buxco FinePoint RC unit. Mucus hyperproduction was quantified in PAS (periodic acid-Schiff)-stained airway cross-sections undergoing systematic, uniform random sampling and subsequent stereologic analysis of mucus amount in the airways and mucus producing goblet cells in the airway mucosa.
Allergic airway inflammation and mucus hyperproduction were assessed on Day 29, 24 hours after the final OVA aerosol challenge and dapansutrile dose.

Data set [5] shares this test system. Put plainly: Goblet cells covering airway mucosa, OVA model, oral dapansutrile in food. The class given is in vivo, mice. The method, then:
as §1, with “(data not shown).” for “Baseline airway resistance of healthy animals was 2.58 cm H2O·s/mL at 100 mg/mL MCh.”

For data set [6] the following is noted: humans, oral 1000 mg/day; Marchetti 2018b; cited from earlier work.

In the case of `CS(=O)(=O)CCC#N` [dapansutrile, 3-methanesulfonylpropionitrile], in data set [1] (oral, 7.5 g/kg in food, vs sham-treated asthmatic controls, p<0.01), the “reduction of airway resistance in response to MCh” value is reported as “approximately 60%”. Further, the “airway resistance in response to MCh” value in data set [1] (treated mice, oral 7.5 g/kg in food, asthmatic 4.57, healthy 2.58) was 3.38 cm H2O·s/mL. Moreover, the “number of inflammatory cells in lung tissue (volume of inflammatory cell infiltrate per basal membrane area)” value in data set [2] was “significantly lower”. The “concentrations of all measured cytokines in BALF” value in data set [3] is “some reduction”. For the same compound, the “IL-1β concentration in BALF” value in data set [3] (p<0.001) was “statistically significant reduction”. Moreover, in data set [3] (p<0.05), the “IL-6 concentration in BALF” value was “statistically significant reduction”. Further, in data set [4] (60 mg/kg i.p. days 25-28, vs asthmatic mice), the “reduction in lymphocytes in BALF” value is on record as 32%. In data set [4] (60 mg/kg i.p. days 25-28, vs asthmatic mice, p<0.0001), the “reduction in eosinophils in BALF” value was “approximately 60%”. The “reduction in neutrophils in BALF” value in data set [4] (60 mg/kg i.p. days 25-28, vs asthmatic mice, p<0.01) worked out at 70%. Moreover, in data set [4] (60 mg/kg i.p., vs asthmatic mice), the “macrophage numbers in BALF” value is recorded as “no significant reduction”. The “eosinophils in BALF” value in data set [4] (treated mice, 60 mg/kg i.p. days 25-28, asthmatic 21.96×10^4) is 7.30×10^4 cells/ml. In data set [4] (treated mice, 60 mg/kg i.p., asthmatic 0.80×10^4), the “lymphocytes in BALF” value was 0.55×10^4 cells/ml. The “neutrophils in BALF” value in data set [4] (treated mice, 60 mg/kg i.p., asthmatic 2.41×10^4) is 0.70×10^4 cells/ml. Further, the “change of goblet cells covering the airway mucosa” value in data set [5] (oral, 7.5 g/kg in food, vs asthmatic mice) is −29%. Also, the “goblet cells covering the airway mucosa” value in data set [5] (treated mice, oral 7.5 g/kg in food, asthmatic 15.75%) was found to be 11.16%. In addition, the blood level in data set [6] was 40000 ng/mL.
